Reference: ChEMBL document CHEMBL4507269, “Data for DCP probe BAY-386” (2021)

Legend:
[1] = molecular target: 5-hydroxytryptamine receptor 2A (Homo sapiens) (UniProt P28223); conditions: Compound concentration 10.0 uM
[2] = molecular target: Serine/threonine-protein kinase 32A (Homo sapiens) (UniProt Q8WU08); conditions: Compound concentration 1000.0 nM
[3] = molecular target: Mitogen-activated protein kinase kinase kinase 13 (Homo sapiens) (UniProt O43283); conditions: Compound concentration 1000.0 nM
[4] = molecular target: Serine/threonine-protein kinase MRCK alpha (Homo sapiens) (UniProt Q5VT25); conditions: Compound concentration 1000.0 nM
[5] = system: Tyrosine-protein kinase ABL1 (Homo sapiens), P00519 [F317L]; conditions: Compound concentration 1000.0 nM
[6] = molecular target: Platelet-derived growth factor receptor beta (Homo sapiens) (UniProt P09619); conditions: Compound concentration 1000.0 nM
[7] = molecular target: Mitogen-activated protein kinase 14 (Homo sapiens) (UniProt Q16539); conditions: Compound concentration 1000.0 nM
[8] = molecular target: Cyclin-dependent kinase-like 5 (Homo sapiens) (UniProt O76039); conditions: Compound concentration 1000.0 nM
[9] = molecular target: Cyclin-dependent kinase 14 (Homo sapiens) (UniProt O94921); conditions: Compound concentration 1000.0 nM
[10] = molecular target: Mitogen-activated protein kinase kinase kinase 2 (Homo sapiens) (UniProt Q9Y2U5); conditions: Compound concentration 1000.0 nM
[11] = molecular target: Inhibitor of nuclear factor kappa-B kinase subunit beta (Homo sapiens) (UniProt O14920); conditions: Compound concentration 1000.0 nM
[12] = molecular target: Serine/threonine-protein kinase DCLK3 (Homo sapiens) (UniProt Q9C098); conditions: Compound concentration 1000.0 nM
[13] = molecular target: Serine/threonine-protein kinase ICK (Homo sapiens) (UniProt Q9UPZ9); conditions: Compound concentration 1000.0 nM
[14] = molecular target: Dual specificity testis-specific protein kinase 1 (Homo sapiens) (UniProt Q15569); conditions: Compound concentration 1000.0 nM
[15] = system: eIF-2-alpha kinase GCN2 (Homo sapiens), Q9P2K8 [S808G]; conditions: Compound concentration 1000.0 nM
[16] = molecular target: Mitogen-activated protein kinase kinase kinase 12 (Homo sapiens) (UniProt Q12852); conditions: Compound concentration 1000.0 nM
[17] = molecular target: Serine/threonine-protein kinase 32C (Homo sapiens) (UniProt Q86UX6); conditions: Compound concentration 1000.0 nM
[18] = molecular target: Ribosomal protein S6 kinase alpha-1 (Homo sapiens) (UniProt Q15418); conditions: Compound concentration 1000.0 nM
[19] = molecular target: TRAF2 and NCK-interacting protein kinase (Homo sapiens) (UniProt Q9UKE5); conditions: Compound concentration 1000.0 nM
[20] = molecular target: 5-hydroxytryptamine receptor 6 (Homo sapiens) (UniProt P50406); assay: 5-HT6 (h) Eurofins-Cerep Cellular and Nuclear Receptor Functional Assays; conditions: Compound concentration 10.0 uM
[21] = molecular target: LIM domain kinase 1 (Homo sapiens) (UniProt P53667); conditions: Compound concentration 1000.0 nM
[22] = molecular target: Calcium/calmodulin-dependent protein kinase kinase 1 (Homo sapiens) (UniProt Q8N5S9); conditions: Compound concentration 1000.0 nM
[23] = molecular target: Sigma intracellular receptor 2 (Homo sapiens, UniProt Q5BJF2); conditions: Compound concentration 10.0 uM
[24] = molecular target: Serine/threonine-protein kinase PLK1 (Homo sapiens) (UniProt P53350); conditions: Compound concentration 1000.0 nM
[25] = molecular target: Mitogen-activated protein kinase 10 (Homo sapiens) (UniProt P53779); conditions: Compound concentration 1000.0 nM
[26] = molecular target: Serine/threonine-protein kinase OSR1 (Homo sapiens) (UniProt O95747); conditions: Compound concentration 1000.0 nM
[27] = molecular target: Phosphatidylinositol 3-kinase C2 domain-containing subunit gamma (Homo sapiens) (UniProt O75747); conditions: Compound concentration 1000.0 nM
[28] = molecular target: Serine/threonine-protein kinase 17B (Homo sapiens) (UniProt O94768); conditions: Compound concentration 1000.0 nM
[29] = molecular target: D(3) dopamine receptor (Homo sapiens) (UniProt P35462); conditions: Compound concentration 10.0 uM
[30] = molecular target: Serine/threonine-protein kinase SIK2 (Homo sapiens) (UniProt Q9H0K1); conditions: Compound concentration 1000.0 nM
[31] = molecular target: MAP kinase-activated protein kinase 2 (Homo sapiens) (UniProt P49137); conditions: Compound concentration 1000.0 nM
[32] = molecular target: Cyclin-dependent kinase 4 (Homo sapiens) (UniProt P11802); conditions: Compound concentration 1000.0 nM
[33] = molecular target: MAP kinase-interacting serine/threonine-protein kinase 2 (Homo sapiens) (UniProt Q9HBH9); conditions: Compound concentration 1000.0 nM
[34] = molecular target: Protein kinase C theta type (Homo sapiens) (UniProt Q04759); conditions: Compound concentration 1000.0 nM
[35] = molecular target: Casein kinase I isoform gamma-2 (Homo sapiens) (UniProt P78368); conditions: Compound concentration 1000.0 nM
[36] = molecular target: T1, Alpha-1D adrenergic receptor (Homo sapiens) (UniProt P25100); conditions: Compound concentration 10.0 uM
T1 sequence (whole entry): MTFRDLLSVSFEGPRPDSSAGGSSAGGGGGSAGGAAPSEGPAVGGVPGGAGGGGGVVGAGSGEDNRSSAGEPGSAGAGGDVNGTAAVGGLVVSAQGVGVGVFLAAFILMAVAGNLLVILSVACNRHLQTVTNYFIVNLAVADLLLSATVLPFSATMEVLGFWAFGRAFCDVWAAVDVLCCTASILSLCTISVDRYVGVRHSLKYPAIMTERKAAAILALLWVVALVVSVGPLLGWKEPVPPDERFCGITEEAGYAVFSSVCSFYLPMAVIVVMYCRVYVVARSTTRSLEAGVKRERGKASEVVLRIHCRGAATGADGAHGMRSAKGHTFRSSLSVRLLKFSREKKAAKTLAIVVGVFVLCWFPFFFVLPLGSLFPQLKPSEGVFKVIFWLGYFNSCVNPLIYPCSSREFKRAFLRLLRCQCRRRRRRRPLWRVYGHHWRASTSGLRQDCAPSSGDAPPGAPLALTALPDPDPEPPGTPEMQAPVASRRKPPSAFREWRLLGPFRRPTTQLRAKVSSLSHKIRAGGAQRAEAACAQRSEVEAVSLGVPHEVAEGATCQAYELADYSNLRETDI

[37] = molecular target: Myosin light chain kinase (Homo sapiens) (UniProt Q32MK0); conditions: Compound concentration 1000.0 nM

Chain of 5-hydroxytryptamine receptor 6 (Homo sapiens) (P50406 whole entry, the tested form may be a part): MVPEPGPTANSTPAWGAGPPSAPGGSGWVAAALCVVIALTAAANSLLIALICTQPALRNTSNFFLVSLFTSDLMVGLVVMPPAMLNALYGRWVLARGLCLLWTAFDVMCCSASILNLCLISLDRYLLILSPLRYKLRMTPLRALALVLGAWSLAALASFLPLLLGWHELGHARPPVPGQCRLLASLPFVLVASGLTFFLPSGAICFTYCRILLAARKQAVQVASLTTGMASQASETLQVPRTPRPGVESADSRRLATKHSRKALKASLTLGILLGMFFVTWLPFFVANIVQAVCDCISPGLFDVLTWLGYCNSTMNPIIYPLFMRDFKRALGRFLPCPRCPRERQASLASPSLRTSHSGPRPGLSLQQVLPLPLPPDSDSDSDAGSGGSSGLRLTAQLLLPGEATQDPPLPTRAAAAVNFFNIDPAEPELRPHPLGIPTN
Chain of MAP kinase-interacting serine/threonine-protein kinase 2 (Homo sapiens) (Q9HBH9 whole entry, looked up): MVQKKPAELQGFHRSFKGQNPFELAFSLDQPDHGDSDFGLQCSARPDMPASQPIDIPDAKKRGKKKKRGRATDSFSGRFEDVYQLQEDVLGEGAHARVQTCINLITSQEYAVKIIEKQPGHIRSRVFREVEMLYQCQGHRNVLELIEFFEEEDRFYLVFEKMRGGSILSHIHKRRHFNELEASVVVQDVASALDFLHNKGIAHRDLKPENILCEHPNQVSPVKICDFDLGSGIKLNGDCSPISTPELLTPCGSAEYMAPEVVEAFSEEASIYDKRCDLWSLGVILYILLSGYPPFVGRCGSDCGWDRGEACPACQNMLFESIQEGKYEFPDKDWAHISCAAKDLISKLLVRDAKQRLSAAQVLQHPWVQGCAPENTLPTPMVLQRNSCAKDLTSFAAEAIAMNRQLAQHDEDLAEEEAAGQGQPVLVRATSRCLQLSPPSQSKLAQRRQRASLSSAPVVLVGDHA
Chain of Serine/threonine-protein kinase DCLK3 (Homo sapiens) (Q9C098 whole entry): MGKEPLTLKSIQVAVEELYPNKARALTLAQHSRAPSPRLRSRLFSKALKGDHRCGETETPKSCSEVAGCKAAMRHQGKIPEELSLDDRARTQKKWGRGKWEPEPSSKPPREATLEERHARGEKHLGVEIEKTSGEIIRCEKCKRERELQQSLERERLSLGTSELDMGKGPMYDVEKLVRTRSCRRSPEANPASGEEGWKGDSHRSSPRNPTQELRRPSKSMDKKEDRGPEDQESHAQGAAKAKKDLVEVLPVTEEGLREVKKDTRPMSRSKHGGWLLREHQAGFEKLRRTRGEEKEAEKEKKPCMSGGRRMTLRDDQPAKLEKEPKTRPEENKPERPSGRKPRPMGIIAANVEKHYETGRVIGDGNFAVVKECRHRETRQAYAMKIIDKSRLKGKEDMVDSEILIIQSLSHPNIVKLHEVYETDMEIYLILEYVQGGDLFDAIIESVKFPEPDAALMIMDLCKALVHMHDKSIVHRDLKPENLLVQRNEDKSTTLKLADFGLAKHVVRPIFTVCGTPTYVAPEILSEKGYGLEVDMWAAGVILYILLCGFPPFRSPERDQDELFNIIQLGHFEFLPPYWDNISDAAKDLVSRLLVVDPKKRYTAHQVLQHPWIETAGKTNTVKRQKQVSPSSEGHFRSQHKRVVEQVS
Chain of Tyrosine-protein kinase ABL1 (Homo sapiens), P00519 [F317L] (P00519 whole entry F317L): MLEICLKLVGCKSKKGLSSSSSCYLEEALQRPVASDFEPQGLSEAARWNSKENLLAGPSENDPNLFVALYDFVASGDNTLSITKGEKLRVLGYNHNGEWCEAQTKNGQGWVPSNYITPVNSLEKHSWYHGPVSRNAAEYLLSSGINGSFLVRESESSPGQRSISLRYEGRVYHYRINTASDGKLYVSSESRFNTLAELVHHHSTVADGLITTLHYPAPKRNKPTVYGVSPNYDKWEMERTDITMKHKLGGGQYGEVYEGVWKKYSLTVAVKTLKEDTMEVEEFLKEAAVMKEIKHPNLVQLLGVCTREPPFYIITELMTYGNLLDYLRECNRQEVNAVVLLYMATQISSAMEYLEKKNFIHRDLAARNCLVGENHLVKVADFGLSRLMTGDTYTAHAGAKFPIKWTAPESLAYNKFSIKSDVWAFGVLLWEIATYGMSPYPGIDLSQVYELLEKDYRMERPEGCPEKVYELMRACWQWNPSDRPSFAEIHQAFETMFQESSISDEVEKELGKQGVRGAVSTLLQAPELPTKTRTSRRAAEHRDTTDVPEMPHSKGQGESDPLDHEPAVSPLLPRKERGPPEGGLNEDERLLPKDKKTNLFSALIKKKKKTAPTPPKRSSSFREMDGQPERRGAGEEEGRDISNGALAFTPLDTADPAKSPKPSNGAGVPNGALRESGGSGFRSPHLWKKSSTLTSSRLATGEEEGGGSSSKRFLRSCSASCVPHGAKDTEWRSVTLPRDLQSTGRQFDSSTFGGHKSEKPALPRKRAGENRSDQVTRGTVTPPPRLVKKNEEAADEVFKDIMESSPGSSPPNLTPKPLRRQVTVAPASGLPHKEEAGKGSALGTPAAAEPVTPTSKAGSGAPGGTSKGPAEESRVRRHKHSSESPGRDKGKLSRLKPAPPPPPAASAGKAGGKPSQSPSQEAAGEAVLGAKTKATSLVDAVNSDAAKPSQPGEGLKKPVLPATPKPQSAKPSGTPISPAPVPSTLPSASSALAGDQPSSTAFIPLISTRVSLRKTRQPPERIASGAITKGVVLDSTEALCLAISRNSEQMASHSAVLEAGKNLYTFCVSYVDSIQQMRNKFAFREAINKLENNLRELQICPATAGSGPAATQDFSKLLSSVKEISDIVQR
Chain of eIF-2-alpha kinase GCN2 (Homo sapiens), Q9P2K8 [S808G] (Q9P2K8 whole entry S808G): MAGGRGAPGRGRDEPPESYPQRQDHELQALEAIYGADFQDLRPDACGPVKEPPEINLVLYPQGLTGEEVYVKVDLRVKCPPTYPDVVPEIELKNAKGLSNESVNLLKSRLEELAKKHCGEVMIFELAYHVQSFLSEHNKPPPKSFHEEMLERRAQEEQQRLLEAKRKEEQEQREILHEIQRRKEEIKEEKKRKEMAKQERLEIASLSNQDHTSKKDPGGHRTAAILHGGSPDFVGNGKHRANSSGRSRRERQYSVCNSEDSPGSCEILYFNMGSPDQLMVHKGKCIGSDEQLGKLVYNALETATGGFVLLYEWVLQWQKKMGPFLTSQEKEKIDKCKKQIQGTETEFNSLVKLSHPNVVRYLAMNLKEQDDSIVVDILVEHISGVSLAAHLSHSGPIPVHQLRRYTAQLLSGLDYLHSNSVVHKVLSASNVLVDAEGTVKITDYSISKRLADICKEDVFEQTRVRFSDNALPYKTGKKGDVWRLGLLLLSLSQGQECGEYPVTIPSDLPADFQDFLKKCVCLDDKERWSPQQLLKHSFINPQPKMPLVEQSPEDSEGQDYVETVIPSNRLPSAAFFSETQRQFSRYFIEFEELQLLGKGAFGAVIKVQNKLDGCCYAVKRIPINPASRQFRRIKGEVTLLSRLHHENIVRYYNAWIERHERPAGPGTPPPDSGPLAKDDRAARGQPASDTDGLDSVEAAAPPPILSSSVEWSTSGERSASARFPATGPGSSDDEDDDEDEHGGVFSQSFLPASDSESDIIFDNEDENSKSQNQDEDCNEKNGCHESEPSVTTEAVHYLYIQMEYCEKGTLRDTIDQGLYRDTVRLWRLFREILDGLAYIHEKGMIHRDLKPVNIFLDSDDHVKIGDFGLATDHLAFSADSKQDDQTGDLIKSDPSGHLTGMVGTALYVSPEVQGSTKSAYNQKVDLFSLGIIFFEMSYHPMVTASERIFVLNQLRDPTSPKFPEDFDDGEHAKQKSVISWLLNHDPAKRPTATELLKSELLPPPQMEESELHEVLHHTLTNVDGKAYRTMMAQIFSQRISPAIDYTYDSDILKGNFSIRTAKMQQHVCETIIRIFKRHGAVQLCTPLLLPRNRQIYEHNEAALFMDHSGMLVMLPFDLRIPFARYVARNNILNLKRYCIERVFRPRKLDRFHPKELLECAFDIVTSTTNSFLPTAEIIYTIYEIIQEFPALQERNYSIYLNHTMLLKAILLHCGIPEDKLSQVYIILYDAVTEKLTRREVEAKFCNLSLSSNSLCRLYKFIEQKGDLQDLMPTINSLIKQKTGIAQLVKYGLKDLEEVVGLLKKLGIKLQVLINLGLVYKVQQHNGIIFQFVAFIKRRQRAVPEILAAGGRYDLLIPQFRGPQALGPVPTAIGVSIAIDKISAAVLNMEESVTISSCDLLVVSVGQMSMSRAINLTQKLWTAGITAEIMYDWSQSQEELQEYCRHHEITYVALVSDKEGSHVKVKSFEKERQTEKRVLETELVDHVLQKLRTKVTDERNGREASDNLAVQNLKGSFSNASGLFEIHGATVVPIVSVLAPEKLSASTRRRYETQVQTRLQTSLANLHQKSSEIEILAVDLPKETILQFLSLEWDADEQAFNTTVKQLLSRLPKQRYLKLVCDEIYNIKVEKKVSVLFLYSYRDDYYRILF
Chain of Serine/threonine-protein kinase 32A (Homo sapiens) (Q8WU08 whole entry): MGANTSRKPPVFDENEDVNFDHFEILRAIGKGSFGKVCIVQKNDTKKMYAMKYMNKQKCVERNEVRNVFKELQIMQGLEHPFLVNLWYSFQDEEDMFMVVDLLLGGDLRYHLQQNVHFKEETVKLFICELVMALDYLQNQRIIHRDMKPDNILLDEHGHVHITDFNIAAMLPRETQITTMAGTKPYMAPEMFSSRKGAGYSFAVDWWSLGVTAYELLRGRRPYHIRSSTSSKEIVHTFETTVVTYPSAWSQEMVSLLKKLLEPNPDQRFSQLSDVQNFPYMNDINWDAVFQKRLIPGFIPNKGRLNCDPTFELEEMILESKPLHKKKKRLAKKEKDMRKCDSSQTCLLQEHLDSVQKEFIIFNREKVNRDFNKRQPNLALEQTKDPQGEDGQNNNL
Chain of Cyclin-dependent kinase 4 (Homo sapiens) (P11802 whole entry): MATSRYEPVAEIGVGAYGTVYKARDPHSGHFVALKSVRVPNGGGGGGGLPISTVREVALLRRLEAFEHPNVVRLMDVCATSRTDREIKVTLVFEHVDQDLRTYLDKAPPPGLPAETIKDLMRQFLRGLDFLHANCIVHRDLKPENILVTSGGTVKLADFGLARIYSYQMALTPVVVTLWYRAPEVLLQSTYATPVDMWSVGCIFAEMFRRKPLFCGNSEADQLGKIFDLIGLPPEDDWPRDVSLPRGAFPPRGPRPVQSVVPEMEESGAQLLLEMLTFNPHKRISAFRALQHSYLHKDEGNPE

SMILES	inhibition [1]	residual activity [2]	residual activity [3]	residual activity [4]	residual activity [5]	residual activity [6]	residual activity [7]	residual activity [8]	residual activity [9]	residual activity [10]	residual activity [11]	residual activity [12]	residual activity [13]	residual activity [14]	residual activity [15]	residual activity [16]	residual activity [17]	residual activity [18]	residual activity [19]	% Inhibition of Control Agonist Response (Mean n=2) [20]	also measured
O=C(N1CCS(=O)(=O)CC1)N1C[C@H](c2ccc(OC(F)(F)F)cc2)C[C@H](c2nc(C3CC3)no2)C1 [BAY-386]	10.5%	89%	98%	100%	89%	100%	100%	100%	100%	100%	77%	100%	100%	100%	100%	0%	93%	100%	75%	21.1%	% of Control Agonist Response (Mean n=2) [20]: 2.8%; residual activity [21]: 100%; residual activity [22]: 100%; inhibition [23]: 67.7%; residual activity [24]: 91%; residual activity [25]: 79%; residual activity [26]: 100%; residual activity [27]: 93%; residual activity [28]: 100%; inhibition [29]: 5.09%; residual activity [30]: 100%; residual activity [31]: 100%; residual activity [32]: 88%; residual activity [33]: 94%; residual activity [34]: 86%; residual activity [35]: 89%; inhibition [36]: 2.45%; residual activity [37]: 79%
Cc1noc([C@H]2C[C@@H](c3ccc(C(F)(F)F)cc3)CN(C(=O)N3CCS(=O)(=O)C3)C2)n1 [BAY-448]	-2.96%	100%	100%	100%	100%	100%	79%	100%	100%	99%	80%	100%	62%	91%	28%	92%	100%	100%	99%	2.1%	% of Control Agonist Response (Mean n=2) [20]: 1.4%; residual activity [21]: 100%; residual activity [22]: 100%; inhibition [23]: 42.4%; residual activity [24]: 81%; residual activity [25]: 88%; residual activity [26]: 89%; residual activity [27]: 90%; residual activity [28]: 100%; inhibition [29]: -2.97%; residual activity [30]: 100%; residual activity [31]: 97%; residual activity [32]: 100%; residual activity [33]: 100%; residual activity [34]: 87%; residual activity [35]: 100%; inhibition [36]: -1.84%; residual activity [37]: 100%
